Experiment: Drug loading (encapsulation) in co-nanoprecipitated particles
Type: physicochemical
Protocol: During a typical nanoparticle preparation, 5.5 mL of a 1 mg/mL acetone solution of efavirenz, ritonavir or lopinavir is added to a vial and left to evaporate overnight. To this vial 25 mg of the branched polymer and 25 mg of the polymer diblock were added and dissolved in 10 mL of acetone during 6-8 hours to ensure complete solubilisation. 1 mL of the 5 mg/mL solution of polymers and dissolved drug was added to 5 mL of stirring distilled water (500 rpm) and left for 24 hours for complete acetone evaporation (final concentration of polymer 1 mg/mL). During a typical nanoparticle preparation 5.5 mL of a 1 mg/mL acetone solution of irinotecan was added to a vial and left to evaporate overnight. To this vial, 25 mg of the branched polymer and 25 mg of the polymer diblock were added and dissolved in 10 mL of acetone during 6-8 hours to ensure complete solubilisation. 1 mL of the 5 mg/mL solution of polymers and dissolved drug was added to 5 mL of stirring water (500 rpm) and left for 24 hours for complete acetone evaporation.

| SMILES | drug loading achieved |
| --- | --- |
| CCc1c2c(nc3ccc(OC(=O)N4CCC(N5CCCCC5)CC4)cc13)-c1cc3c(c(=O)n1C2)COC(=O)[C@]3(O)CC [Irinotecan] | effectively encapsulated at 10 wt % or 15 wt % |
| O=C1Nc2ccc(Cl)cc2[C@@](C#CC2CC2)(C(F)(F)F)O1 [Efavirenz] | 25 wt % |

— US10675251B2, “Particles containing branched polymers” (The University of Liverpool, priority 2014, dated 2020)
